Laboratory results from article PMC4684994 (Journal of immunology (Baltimore, Md. : 1950), 2015).

Legend:
[1] = target: T1, TRPV4 (transient receptor potential vanilloid 4) (Mus musculus, UniProt Q9EPK8); experiment: Inhibition of GSK1016790A-induced calcium influx; type: cell-based
[2] = target: T1, TRPV4 (transient receptor potential vanilloid 4); experiment: Calcium influx; type: cell-based

T1 sequence (Q9EPK8 whole entry): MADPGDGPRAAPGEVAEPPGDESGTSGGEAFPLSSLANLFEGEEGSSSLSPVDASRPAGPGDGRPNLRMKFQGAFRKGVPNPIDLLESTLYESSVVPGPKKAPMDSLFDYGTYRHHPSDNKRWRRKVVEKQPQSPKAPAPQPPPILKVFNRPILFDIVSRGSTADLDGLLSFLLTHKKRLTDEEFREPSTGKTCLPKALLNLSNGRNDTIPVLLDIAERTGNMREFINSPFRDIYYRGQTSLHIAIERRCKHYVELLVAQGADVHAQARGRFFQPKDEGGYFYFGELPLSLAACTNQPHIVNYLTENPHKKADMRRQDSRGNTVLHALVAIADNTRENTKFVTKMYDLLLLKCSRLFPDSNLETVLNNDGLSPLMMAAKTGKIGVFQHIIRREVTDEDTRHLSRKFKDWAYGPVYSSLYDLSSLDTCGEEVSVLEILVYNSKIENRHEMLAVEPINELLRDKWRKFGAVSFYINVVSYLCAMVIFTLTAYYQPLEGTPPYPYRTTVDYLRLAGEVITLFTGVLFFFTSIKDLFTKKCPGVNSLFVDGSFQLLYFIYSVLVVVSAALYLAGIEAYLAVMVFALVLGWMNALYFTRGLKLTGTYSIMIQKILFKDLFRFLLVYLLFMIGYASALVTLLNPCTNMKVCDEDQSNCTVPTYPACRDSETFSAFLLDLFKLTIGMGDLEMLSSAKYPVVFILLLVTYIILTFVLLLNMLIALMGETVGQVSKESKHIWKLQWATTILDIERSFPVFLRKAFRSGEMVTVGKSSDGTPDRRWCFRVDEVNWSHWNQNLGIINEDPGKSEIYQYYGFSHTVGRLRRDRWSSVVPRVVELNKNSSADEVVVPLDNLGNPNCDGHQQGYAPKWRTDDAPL

`Cc1c(C(=O)Nc2cccc(C(F)(F)F)c2)cc(-c2ccccc2)n1CCCN1CCOCC1` [HC, HC067047] showed an IC50 [1] of 7 µM.
`CC(C)C[C@H](NC(=O)c1cc2ccccc2s1)C(=O)N1CCN(C(=O)[C@H](CO)NS(=O)(=O)c2ccc(Cl)cc2Cl)CC1` [GSK, GSK1016790A] gave an EC50 [2] of 0.05 µM.
